We go through 20 molecules from patent publication US20250122221A1 (NANJING ZAIMING PHARMACEUTICAL CO., LTD., priority 2022, published 2025).

Each structure is given as a SMILES string. pIC50: −log10 of the molar value.

The target of assay [1] is N-terminal active peptide segment (MI-N899) of POLQ with ATPase activity (Homo sapiens (Human), UniProt O75417). Description: POLQ enzyme activity inhibition experiment (ATPase, NADH-coupled, OD 340 nm). The format is biochemical. The settings on record: 100 nM POLQ (N), 100 μM ATP, 300 nM dT50. How it is done:
The Envision microplate reader from Perkin Elmer Inc was used to measure the reduction of OD value of NADH at 340 nm, thus reflecting the enzyme activity. Experimental method: The POLQ enzyme was diluted to 100 nM with a reaction buffer (20 mM Tris HCl (pH 7.80), 80 mM KCl, 10 mM MgCl2, 1 mM DTT, 0.01% w/v bovine serum albumin, 0.01% v/v Tween-20, and 5% v/v glycerol). The compounds to be tested were diluted to different concentrations in dimethyl sulfoxide (DMSO) using the Echo 650 pipetting system, and transferred to a 384-well plate, 20 μL/well of 100 nM POLQ was added, and the mixture was incubated at room temperature for 15 minutes. A reaction mixture solution was formulated, and the concentration of each component in the reaction mixture solution was: 100 μM ATP, 300 nM […], 300 μM NADH, 6 mM PEP, 10 U/mL lactate dehydrogenase and 20 U/mL pyruvate kinase. 20 μL/well of reaction mixture solution was added to start the enzyme reaction. […] The concentration range was from 10 μM to 0.0005 μM, and the final concentration of DMSO in the system was 0.2% v/v. The 384-well plate was reacted at room temperature for 20 minutes, and then the OD value at 340 nm was read with an Envision microplate reader. The inhibition rate was calculated, and XLfit software was used to perform fitting to obtain IC50 of the compounds. In the experiment, a blank group and a DMSO group were set up, respectively.

The subject of another assay is DLD-1 BRCA2 (−/−) cells. The experiment in a line: Inhibition of tumour cell proliferation, 7 days, CTG. The settings on record: Homo sapiens, 168 h; DLD-1 BRCA2 (−/−) cells, 7 days of incubation, CTG; read-out: DLD-1 BRCA2 (−/−) IC50. The format is cell-based. The method, then:
(§1) Brief introduction to the experimental principle: The compounds were co-incubated with tumour cells for 7 days, and then a CTG kit from Promega Inc was used to quantify ATP in viable cells, thus reflecting the effect of the compounds on tumour cell proliferation.
(§2) Experimental method: DLD-1 parental cells or DLD-1 BRCA2 (−/−) cells were diluted with RPMI 1640 medium containing 10% FBS, and then added to a 96-well plate (90 μL/well), with the number of cells being 600 cells/well or 1200 cells/well, respectively, and cultured overnight in a 37° C., 5% CO2 incubator. The compounds to be tested were diluted to different concentrations in dimethyl sulfoxide (DMSO), and then added to a 96-well plate. The final concentration of the compounds in the reaction system started from 25 μM, and was subjected to 4-fold gradient dilution. The concentration range of the compounds was from 25 μM to 0.0004 μM, and the final concentration of DMSO was 0.25% v/v. After 7 days of incubation, 50 μL/well CTG was added, and the mixture was incubated at room temperature for 10 minutes. Subsequently, the luminescence (Lum) signal value was read with an Envision microplate reader, and the inhibition rate and half inhibitory concentration (IC50) were calculated.
(§3) The inhibition rate was calculated, and XLfit software was used to perform fitting to obtain IC50 of the compounds.
(§4) In the experiment, a blank well and a DMSO well were set up, respectively.
(§5) Inhibition rate=100*(Lummax−Lumcompound)/(Lummax−Lummin)%, • where Lummax refers to the luminescence signal value of the well containing cells and 0.25% v/v DMSO; Lumcompound refers to the luminescence signal value of the well containing the compound and cells; and Lummin refers to the luminescence signal value of the well containing the medium and 0.25% v/v DMSO.

Another assay concerns DLD-1 parental cells. The description is as above. Particulars: Homo sapiens, 168 h; DLD-1 parental cells, 7 days of incubation, CTG; read-out: DLD-1 parental cell IC50. The assay is classed as cell-based. The method, then: as §1, §2, §3, §4, §5

Sequence of N-terminal active peptide segment (MI-N899) of POLQ with ATPase activity (O75417 1-899 limits assumed): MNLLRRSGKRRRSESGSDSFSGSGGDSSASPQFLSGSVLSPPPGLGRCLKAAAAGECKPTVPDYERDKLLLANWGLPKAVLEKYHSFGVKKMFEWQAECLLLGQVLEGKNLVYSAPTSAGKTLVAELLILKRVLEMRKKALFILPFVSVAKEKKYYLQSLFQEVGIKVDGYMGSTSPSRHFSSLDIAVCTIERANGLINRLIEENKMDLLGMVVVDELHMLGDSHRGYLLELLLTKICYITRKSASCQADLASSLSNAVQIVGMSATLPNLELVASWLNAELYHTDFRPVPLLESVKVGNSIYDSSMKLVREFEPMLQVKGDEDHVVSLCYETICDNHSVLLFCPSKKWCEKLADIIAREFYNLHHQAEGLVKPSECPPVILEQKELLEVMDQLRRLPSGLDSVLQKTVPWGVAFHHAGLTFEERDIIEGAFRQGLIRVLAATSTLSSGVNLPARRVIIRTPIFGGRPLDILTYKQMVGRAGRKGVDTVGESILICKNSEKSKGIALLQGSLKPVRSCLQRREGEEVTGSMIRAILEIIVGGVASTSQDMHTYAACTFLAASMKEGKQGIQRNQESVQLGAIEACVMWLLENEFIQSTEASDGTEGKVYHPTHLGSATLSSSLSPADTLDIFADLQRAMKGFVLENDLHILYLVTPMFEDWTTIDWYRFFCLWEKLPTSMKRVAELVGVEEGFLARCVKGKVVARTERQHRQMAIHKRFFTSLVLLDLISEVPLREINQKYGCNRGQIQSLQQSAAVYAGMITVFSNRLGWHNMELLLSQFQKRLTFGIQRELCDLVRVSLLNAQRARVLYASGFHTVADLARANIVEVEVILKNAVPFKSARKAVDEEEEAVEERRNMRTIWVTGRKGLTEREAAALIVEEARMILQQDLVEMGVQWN

`COc1ccc(C#N)cc1-c1cc(C)ncc1C(=O)Nc1nc2ncc(-c3ccc(C#N)cc3)nc2s1` [Compound 58, 4-(5-cyano-2-methoxyphenyl)-N-(6-(4-cyanophenyl)thiazolo [4,5-b]pyrazin-2-yl)-6-methylpyridine-3-carboxamide]: the pIC50 in assay [1] was greater than 7.00; with DLD-1 BRCA2 (−/−) cells, greater than 6.70; in the assay on DLD-1 parental cells it was less than 5.00.

As for `COc1ccc(Cl)cc1-c1cc(C)ncc1C(=O)Nc1nc2ncc(-c3ccc(C(C)(C)O)cn3)nc2s1` [Compound 78, 4-(5-chloro-2-methoxyphenyl)-N-(6-(5-(2-hydroxyprop-2-yl)pyridin-2-yl)thiazolo[4,5-b]pyrazin-2-yl)-6-methylpyridine-3-carboxamide], the pIC50 in assay [1] was greater than 7.00; in the assay on DLD-1 BRCA2 (−/−) cells it was greater than 6.70; in the assay on DLD-1 parental cells, less than 5.00.

For `COc1cnc(C)cc1-c1cc(C)ncc1C(=O)Nc1nc2ncc(-c3ccc(OC(F)(F)F)cc3)nc2s1` [Compound 81, 5′-methoxy-2′,6-dimethyl-N-(6-(4-(trifluoromethoxy)phenyl)thiazolo[4,5-b]pyrazin-2-yl)-[4,4′-bipyridine]-3-carboxamide], the pIC50 in assay [1] is greater than 7.00; with DLD-1 BRCA2 (−/−) cells it was greater than 6.70; with DLD-1 parental cells, less than 5.00.

With `COc1ccc(C2CC2)cc1-c1cc(C)ncc1C(=O)Nc1nc2ncc(-c3ccc(C#N)cc3)nc2s1` [Compound 84, N-(6-(4-cyanophenyl)thiazolo[4,5-b]pyrazin-2-yl)-4-(5-cyclopropyl-2-methoxyphenyl)-6-methylpyridine-3-carboxamide], the values for the pIC50 (in assay [1]; in the assay with DLD-1 BRCA2 (−/−) cells; in the assay with DLD-1 parental cells) were greater than 7.00, greater than 6.70 and less than 5.00, respectively.

With `C#Cc1ccc(F)cc1-c1cc(C)ncc1C(=O)Nc1nc2ncc(-c3ccc(C#N)cc3)nc2s1` [Compound 48, N-(6-(4-cyanophenyl)thiazolo[4,5-b]pyrazin-2-yl)-4-(2-ethynyl-5-fluorophenyl)-6-methylpyridine-3-carboxamide], the pIC50 in assay [1] was greater than 7.00; with DLD-1 BRCA2 (−/−) cells it was 6.30 to 6.70; in the assay on DLD-1 parental cells, less than 5.00.

Regarding `COc1cccc(F)c1-c1cnccc1C(=O)Nc1nc2ncc(-c3ccc(C#N)cc3)nc2s1` [Compound 34, N-(6-(4-cyanophenyl)thiazolo[4,5-b]pyrazin-2-yl)-3-(2-fluoro-6-methoxyphenyl)pyridine-4-carboxamide], the pIC50 in assay [1] was greater than 7.00; in the assay with DLD-1 BRCA2 (−/−) cells it was greater than 6.70; with DLD-1 parental cells, less than 5.00.

Consider `COc1ccc(Cl)cc1-c1cc(C)ncc1C(=O)Nc1nc2ncc(-c3ccc(OC(F)F)cc3)nc2s1` [Compound 80, 4-(5-chloro-2-methoxyphenyl)-N-(6-(4-(difluoromethoxy)phenyl)thiazolo[4,5-b]pyrazin-2-yl)-6-methylpyridine-3-carboxamide], for which the pIC50 in assay [1] is greater than 7.00; in the assay on DLD-1 BRCA2 (−/−) cells, greater than 6.70; in the assay with DLD-1 parental cells it was less than 5.00.

As for `COc1ccccc1-c1ccncc1C(=O)Nc1nc2ncc(-c3ccc(C#N)cc3)nc2s1` [Compound 16, N-(6-(4-cyanophenyl)thiazolo[4,5-b]pyrazin-2-yl)-4-(2-methoxyphenyl)nicotinamide], the pIC50 was greater than 7.00 in assay [1], 6.30 to 6.70 in the assay with DLD-1 BRCA2 (−/−) cells and less than 5.00 in the assay on DLD-1 parental cells.

Turning to `COc1cnc(C)cc1-c1cc(C)ncc1C(=O)Nc1nc2ncc(-c3ccc(C(C)(C)C#N)cn3)nc2s1` [Compound 68, N-[6-[5-(1-cyano-1-methyl-ethyl)pyridin-2-yl]thiazolo[4,5-b]pyrazin-2-yl]-4-(5-methoxy-2-methylpyridine-4-yl)-6-methyl-pyridine-3-carboxamide], the pIC50 in assay [1] was greater than 7.00; in the assay with DLD-1 BRCA2 (−/−) cells, greater than 6.70; in the assay with DLD-1 parental cells it was less than 5.00.

Consider `COc1cnc(C2CC2)cc1-c1cc(C)ncc1C(=O)Nc1nc2ncc(-c3ccc(C#N)cc3)nc2s1` [Compound 72, N-(6-(4-cyanophenyl)thiazolo[4,5-b]pyrazin-2-yl)-2′-cyclopropyl-5′-methoxy-6-methyl-[4,4′-bipyridine]-3-carboxamide], for which the pIC50 was greater than 7.00 in assay [1], greater than 6.70 with DLD-1 BRCA2 (−/−) cells and less than 5.00 in the assay on DLD-1 parental cells.

As for `COc1cnc(C)cc1-c1cc(C)ncc1C(=O)Nc1nc2ncc(-c3ccc(OC(F)F)cn3)nc2s1` [Compound 25, N-(6-(5-(difluoromethoxy)pyridin-2-yl)thiazolo[4,5-b]pyrazin-2-yl)-5′-methoxy-2′,6-dimethyl-[4,4′-bipyridine]-3-carboxamide], the pIC50 in assay [1] is greater than 7.00; with DLD-1 BRCA2 (−/−) cells it was greater than 6.70; in the assay with DLD-1 parental cells, less than 5.00.

In assay [1], `COc1ccc(Cl)cc1-c1cc(C)ncc1C(=O)Nc1nc2ncc(-c3ccc(Cl)cn3)nc2s1` [Compound 71, 4-(5-chloro-2-methoxyphenyl)-N-(6-(5-chloropyridin-2-yl)thiazolo[4,5-b]pyrazin-2-yl)-6-methylpyridine-3-carboxamide] had a pIC50 greater than 7.00.

With `COc1cnc(C#N)cc1-c1cc(C)ncc1C(=O)Nc1nc2ncc(-c3ccc(Cl)cn3)nc2s1` [Compound 65, N-(6-(5-chloropyridin-2-yl)thiazolo[4,5-b]pyrazin-2-yl)-2′-cyano-5′-methoxy-6-methyl-[4,4′-bipyridine]-3-carboxamide], in assay [1], the pIC50 is greater than 7.00.

In assay [1], `COc1ccccc1-c1cc(C)ncc1C(=O)Nc1nc2ncc(-c3ccc(Cl)cc3)nc2s1` [Compound 4] gave a pIC50 greater than 7.00.

With `COc1ccccc1-c1cn2ccnc2cc1C(=O)Nc1nc2ncc(-c3ccc(C#N)cc3)nc2s1` [Compound 41, N-(6-(4-cyanophenyl)thiazolo[4,5-b]pyrazin-2-yl)-6-(2-methoxyphenyl)imidazo[1,2-a]pyridine-7-carboxamide], the pIC50 in assay [1] was greater than 7.00.

Consider `C#Cc1cnc(C)cc1-c1cc(C)ncc1C(=O)Nc1nc2ncc(-c3ccc(C#N)cc3)nc2s1` [Compound 64, N-(6-(4-cyanophenyl)thiazolo[4,5-b]pyrazin-2-yl)-5′-ethynyl-2′,6-dimethyl-[4,4′-bipyridine]-3-carboxamide], for which the pIC50 in assay [1] is greater than 7.00.

In turn, `COc1cc(-c2cnc3nc(NC(=O)c4ccncc4-c4ccccc4OC)sc3n2)ccc1C#N` [Compound 14, N-(6-(4-cyano-3-methoxyphenyl)thiazolo[4,5-b]pyrazin-2-yl)-3-(2-methoxyphenyl)isonicotinamide] gave a pIC50 in assay [1] greater than 7.00.

For `C#Cc1ccccc1-c1cc(Cl)ncc1C(=O)Nc1nc2ncc(-c3ccc(C#N)cc3)nc2s1` [Compound 43, 6-chloro-N-(6-(4-cyanophenyl)thiazolo[4,5-b]pyrazin-2-yl)-4-(2-ethynylphenyl)pyridine-3-carboxamide], the pIC50 in assay [1] is greater than 7.00.

As for `COc1ccccc1-c1cc(C#N)ncc1C(=O)Nc1nc2ncc(-c3ccc(=O)n(C)c3)nc2s1` [Compound 19, 6-cyano-4-(2-methoxyphenyl)-N-(6-(1-methyl-6-oxo-1,6-dihydropyridin-3-yl)thiazolo[4,5-b]pyrazin-2-yl)nicotinamide], in assay [1], the pIC50 is greater than 7.00.

The molecule `COc1ncccc1-c1cc(C)ncc1C(=O)Nc1nc2ncc(-c3ccc(C#N)cc3)nc2s1` [Compound 44, N-(6-(4-cyanophenyl)thiazolo[4,5-b]pyrazin-2-yl)-2-methoxy-6′-methyl-[3,4′-bipyridine]-3′-carboxamide] had a pIC50 in assay [1] greater than 7.00.
